pIC50: −log10 of the molar value.
What was measured:
SCC-7 [1] = assay: Antitumor activity against mouse SCC-7 cells implanted in C3H mouse assessed as tumor growth time at 12 mg/kg, ip treated every other day 3 times in total (reference value: 2.8 +/- 0.6 day); format: functional
SCC-7 [2] = assay: Antitumor activity against mouse SCC-7 cells implanted in C3H mouse assessed as tumor growth time delay at 12 mg/kg, ip treated every other day 3 times in total; format: functional
MCF7 = assay: Antiproliferative activity against human MCF7 cells assessed as cell growth inhibition by CCK8 assay; format: functional, cell-based
SCC-7 [3] = assay: Antiproliferative activity against mouse SCC-7 cells assessed as cell growth inhibition by CCK8 assay; format: functional, cell-based
A498 = assay: Antiproliferative activity against human A498 cells assessed as cell growth inhibition by CCK8 assay; format: functional, cell-based
PANC-1 = assay: Antiproliferative activity against human PANC-1 cells assessed as cell growth inhibition by CCK8 assay; format: functional, cell-based
SNB-75 = assay: Antiproliferative activity against human SNB-75 cells assessed as cell growth inhibition by CCK8 assay; format: functional, cell-based
RKO = assay: Antiproliferative activity against human RKO cells assessed as cell growth inhibition by CCK8 assay; format: functional, cell-based
U-87 MG = assay: Antiproliferative activity against human U87 cells assessed as cell growth inhibition by CCK8 assay; format: functional, cell-based, U-87MG ATCC
IMR-32 = assay: Antiproliferative activity against human IMR-32 cells assessed as cell growth inhibition by CCK8 assay; format: functional, cell-based
M21 = assay: Antiproliferative activity against human M21 cells assessed as cell growth inhibition by CCK8 assay; format: functional, cell-based
A549 = assay: Antiproliferative activity against human A549 cells assessed as cell growth inhibition by CCK8 assay; format: functional, cell-based
HT-29 = assay: Antiproliferative activity against human HT-29 cells assessed as cell growth inhibition by CCK8 assay; format: functional, cell-based
UMSCC22B = assay: Antiproliferative activity against human UMSCC22B cells assessed as cell growth inhibition by CCK8 assay; format: functional, cell-based
[4] = Terminal half life in human plasma; format: ADME, cell-free; conditions: read-out: beta t1/2

Row | SMILES | Time (SCC-7 [1]) | Time (SCC-7 [2]) | pIC50 (MCF7) | pIC50 (SCC-7 [3]) | pIC50 (A498) | pIC50 (PANC-1) | pIC50 (SNB-75) | pIC50 (RKO) | pIC50 (U-87 MG) | pIC50 (IMR-32) | pIC50 (M21) | pIC50 (A549) | pIC50 (HT-29) | pIC50 (UMSCC22B) | half-life [4]
1 | C[N+](C)(C)CC(=O)N1CC([N+](=O)[O-])([N+](=O)[O-])C1 | 3.6 days | 0.8 days | – | – | – | – | – | – | – | – | – | – | – | – | –
2 | N[C@@H](CSCC(=O)N1CC([N+](=O)[O-])([N+](=O)[O-])C1)C(=O)O | 3.9 days | 1.1 days | – | – | – | – | – | – | – | – | – | – | – | – | –
3 | O=C(CBr)N1CCC1 | 3.8 days | 1 days | – | – | – | – | – | – | – | – | – | – | – | – | –
4 | O=C(CBr)N1CC([N+](=O)[O-])([N+](=O)[O-])C1 [NIBROZETONE] | 4.8 days | 2 days | 11.40 | 11.74 | 11.31 | 11.64 | 11.42 | 11.52 | 11.57 | 11.29 | 11.59 | 11.22 | 11.47 | 11.64 | 27.6 min

Source: ChEMBL document CHEMBL5036323, “Discovery of RRx-001, a Myc and CD47 Downregulating Small Molecule with Tumor Targeted Cytotoxicity and Healthy Tissue Cytoprotective Properties in Clinical Development” (J Med Chem, 2021)
